system: M17-TAU P301L cells; assay: Tau-induced toxicity experiment: LDH leakage of retinoic acid incubated M17-TAU P301L cells; type: cell-based; details: Homo sapiens, Neuroblastoma cell, 168 h; reduction of LDH activity of retinoic acid incubated M17-TAU P301L neuroblastoma cells, 7 days
Text: A TAU expression plasmid was constructed by sub-cloning the cDNA of human TAU-P301L (encoding for TAU with proline 301 substituted by a leucine residue) into mammalian expression vector pcDNA3.1 resulting in plasmid pcDNA3.1-TAU P301L. Plasmids pcDNA3.1 and pcDNA3.1-TAU P301L were transfected to human neuroblastoma cells ([…]; ATCC No. CRL-2267) and independent clonal lines with the plasmids stably integrated into the genome were selected. […] Expression of the TAU P301L genes in the cell lines was confirmed by Western analysis.
In degenerated or dead cells lactate dehydrogenase (LDH) is leaked out of the cells into the extracellular environment due to a loss of plasma-membrane integrity. This principle was used to determine cytotoxicity by quantifying the level of leaked LDH into the growth medium.
The detailed method for determining TAU cytotoxicity was as follows: From appropriate precultures of M17-3.1 and M17-TAU(P301L) cells were seeded at 2500 cells/cm2 in Optimem Reduced Serum without phenol red (Gibco, Cat. 31985-047) supplemented with 1% fetal calf serum, 1 mM sodium pyruvate, 1× non-essential amino acids, 500 μg/ml G418 0.5× antibiotic/antimycotic. After 3 h of incubation at 37° C./5% CO2 1 volume of Optimem Reduced Serum (same as described above; except without fetal calf serum) supplemented with 2.5 μM retinoic acid (RA) was added. The cells were further incubated for 7 days. Subsequently, LDH activity was determined using Promega Cytotox 96 Non-Radioactive cytotoxicity assay, (Cat. G1780) according the supplier's instructions.
The M17-TAU P301L cell line made it possible to assess the ability of novel compounds to counteract TAU cytotoxicity. […] These measurements were used to calculate EC50 values of table 2.

Compound	EC50 [nM]
COc1cccc(Oc2cccc(C(=O)NCCc3c[nH]c4ccc(Cl)cc34)c2)c1 [Cpd089, N-(2-(5-chloro-1H-indol-3-yl)ethyl)-3-(3-methoxyphenoxy)benzamide]	98
COc1ccc(Cc2cccc(C(=O)NCCc3c[nH]c4ccc(Cl)cc34)c2)cc1 [Cpd057, N-(2-(5-chloro-1H-indol-3-yl)ethyl)-3-(4-methoxybenzyl)benzamide]	147
COc1cccc(Cc2ccc(C(=O)NCCc3c[nH]c4ccc(Cl)cc34)cc2)c1F [Cpd068, N-(2-(5-chloro-1H-indol-3-yl)ethyl)-4-(2-fluoro-3-methoxybenzyl)benzamide]	148
N#Cc1cccc(Cc2ccc(C(=O)NCc3c[nH]c4ccc(Cl)cc34)cc2)c1 [Cpd072, N-((5-chloro-1H-indol-3-yl)methyl)-4-(3-cyanobenzyl)benzamide]	132
O=C(NCCc1c[nH]c2ccc(Cl)cc12)c1ccc(Cc2ccc(C(F)(F)F)cc2)cc1 [Cpd039, N-(2-(5-chloro-1H-indol-3-yl)ethyl)-4-(4-(trifluoromethyl)benzyl)benzamide]	22
O=C(NCCc1c[nH]c2ccc(Cl)cc12)c1ccc(Cn2ccnc2)cc1 [Cpd012, 4-((1H-imidazol-1-yl)methyl)-N-(2-(5-chloro-1H-indol-3-yl)ethyl)benzamide]	486
O=C(NCCc1c[nH]c2ccc(Cl)cc12)c1cccc(Oc2ccccc2)c1 [Cpd095, N-(2-(5-chloro-1H-indol-3-yl)ethyl)-3-phenoxybenzamide]	241
O=C(NCCc1c[nH]c2ccc(Cl)cc12)c1ccc(Cc2ccc(Cl)cc2)cc1 [Cpd045, N-(2-(5-chloro-1H-indol-3-yl)ethyl)-4-(4-chlorobenzyl)benzamide]	22
O=C(NCCc1c[nH]c2ccc(Cl)cc12)c1cccc(Nc2ccccc2)c1 [Cpd094, N-(2-(5-chloro-1H-indol-3-yl)ethyl)-3-(phenylamino)benzamide]	161
O=C(NCCc1c[nH]c2ccc(Cl)cc12)c1ccc(Cc2cccnc2)cc1 [Cpd085, N-(2-(5-chloro-1H-indol-3-yl)ethyl)-4-(pyridin-3-ylmethyl)benzamide]	117
O=C(NCCc1c[nH]c2ccc(Cl)cc12)c1ccc(Cc2cccs2)cc1 [Cpd079, N-(2-(5-chloro-1H-indol-3-yl)ethyl)-4-(thiophen-2-ylmethyl)benzamide]	81
O=C(NCCc1c[nH]c2ccc(Cl)cc12)c1cccc(Cc2ccccc2F)c1 [Cpd054, N-(2-(5-chloro-1H-indol-3-yl)ethyl)-3-(2-fluorobenzyl)benzamide]	42
O=C(NCCc1c[nH]c2ccc(Cl)cc12)c1cccc(Cc2cc(F)cc(F)c2)c1 [Cpd065, N-(2-(5-chloro-1H-indol-3-yl)ethyl)-3-(3,5-difluorobenzyl)benzamide]	174
O=C(NCCc1c[nH]c2ccc(Cl)cc12)c1ccc(Oc2cccc(F)c2)cc1 [Cpd105, N-(2-(5-chloro-1H-indol-3-yl)ethyl)-4-(3-fluorophenoxy)benzamide]	112
O=C(NCCc1c[nH]c2ccc(Cl)cc12)c1ccc(Cc2ccncc2)cc1 [Cpd086, N-(2-(5-chloro-1H-indol-3-yl)ethyl)-4-(pyridin-4-ylmethyl)benzamide]	151
CN(c1ccccc1)c1cccc(C(=O)NCCc2c[nH]c3ccc(Cl)cc23)c1 [Cpd097, N-(2-(5-chloro-1H-indol-3-yl)ethyl)-3-(methyl(phenyl)amino)benzamide]	270
O=C(NCCc1c[nH]c2ccc(Cl)cc12)c1ccc(Cc2cccc(F)c2F)cc1 [Cpd103, N-(2-(5-chloro-1H-indol-3-yl)ethyl)-4-(2,3-difluorobenzyl)benzamide]	139

Compound	EC50 [nM]
O=C(NCCc1c[nH]c2ccc(C(F)(F)F)cc12)c1ccc(Cc2cccc(F)c2)cc1 [Cpd108, 4-(3-fluorobenzyl)-N-(2-(5-(trifluoromethyl)-1H-indol-3-yl)ethyl)benzamide]	320
Cc1cccc(Oc2cccc(C(=O)NCCc3c[nH]c4ccc(Cl)cc34)c2)c1 [Cpd090, N-(2-(5-chloro-1H-indol-3-yl)ethyl)-3-(m-tolyloxy)benzamide]	91
O=C(NCCc1c[nH]c2ccc(Cl)cc12)c1ccc(Cc2cccc(F)c2)cc1F [Cpd099, N-(2-(5-chloro-1H-indol-3-yl)ethyl)-2-fluoro-4-(3-fluorobenzyl)benzamide]	27
Cc1ccccc1Cc1ccc(C(=O)NCCc2c[nH]c3ccc(Cl)cc23)cc1 [Cpd028, N-(2-(5-chloro-1H-indol-3-yl)ethyl)-4-(2-methylbenzyl)benzamide]	370
O=C(NCCc1c[nH]c2ccc(Cl)cc12)c1ccc(Cc2ccsc2)cc1 [Cpd080, N-(2-(5-chloro-1H-indol-3-yl)ethyl)-4-(thiophen-3-ylmethyl)benzamide]	18
O=C(NCCc1c[nH]c2ccc(Cl)cc12)c1cccc(Cc2ccc(Cl)cc2)c1 [Cpd050, N-(2-(5-chloro-1H-indol-3-yl)ethyl)-3-(4-chlorobenzyl)benzamide]	50
O=C(NCCc1c[nH]c2ccc(Cl)cc12)c1cccc(Cc2cccc(Cl)c2)c1 [Cpd055, N-(2-(5-chloro-1H-indol-3-yl)ethyl)-3-(3-chlorobenzyl)benzamide]	36
O=C(NCCc1c[nH]c2ccc(Cl)cc12)c1cccc(CNCc2ccccc2)c1 [Cpd023, 3-((benzylamino)methyl)-N-(2-(5-chloro-1H-indol-3-yl)ethyl)benzamide]	94
N#Cc1ccccc1Cc1ccc(C(=O)NCCc2c[nH]c3ccc(Cl)cc23)cc1 [Cpd059, N-(2-(5-chloro-1H-indol-3-yl)ethyl)-4-(2-cyanobenzyl)benzamide]	68
CN(c1ccccc1)c1ccc(C(=O)NCCc2c[nH]c3ccc(Cl)cc23)cc1 [Cpd096, N-(2-(5-chloro-1H-indol-3-yl)ethyl)-4-(methyl(phenyl)amino)benzamide]	470
O=C(NCCc1c[nH]c2ccc(Cl)cc12)c1cccc(Cn2cccn2)c1 [Cpd006, 3-((1H-pyrazol-1-yl)methyl)-N-(2-(5-chloro-1H-indol-3-yl)ethyl)benzamide]	256
N#Cc1ccc(Cc2cccc(C(=O)NCCc3c[nH]c4ccc(Cl)cc34)c2)cc1 [Cpd037, N-(2-(5-chloro-1H-indol-3-yl)ethyl)-3-(4-cyanobenzyl)benzamide]	32
O=C(NCCc1c[nH]c2ccc(Cl)cc12)c1cccc(Cc2cccc(F)c2)n1 [Cpd117, N-(2-(5-chloro-1H-indol-3-yl)ethyl)-6-(3-fluorobenzyl)picolinamide]	109
Cc1cccc(Cc2cccc(C(=O)NCCc3c[nH]c4ccc(Cl)cc34)c2)c1 [Cpd035, N-(2-(5-chloro-1H-indol-3-yl)ethyl)-3-(3-methylbenzyl)benzamide]	60
COc1ccc(Cc2ccc(C(=O)NCCc3c[nH]c4ccc(Cl)cc34)cc2)cc1 [Cpd056, N-(2-(5-chloro-1H-indol-3-yl)ethyl)-4-(4-methoxybenzyl)benzamide]	70
O=C(NCCc1c[nH]c2ccc(Cl)cc12)c1ccc(Nc2ccccc2)cc1 [Cpd092, N-(2-(5-chloro-1H-indol-3-yl)ethyl)-4-(phenylamino)benzamide]	76
Cc1ccc(Cc2cccc(C(=O)NCCc3c[nH]c4ccc(Cl)cc34)c2)cc1 [Cpd034, N-(2-(5-chloro-1H-indol-3-yl)ethyl)-3-(4-methylbenzyl)benzamide]	62

Reference: patent US9266832B2, “Compounds for the treatment of neurodegenerative diseases” (Katholieke Universiteit Levun, priority 2010, dated 2016)
